Target: p38a activated, mitogen-activated protein kinase-activated protein kinase 2 (MAPKAP-K2 or MK2) enzyme (Homo sapiens (Human), UniProt P49137)
Assay: MK2 Omnia continuous-read kinase assay for compound potency
Type: biochemical
Settings: [MK-2]=0.4 nM, [ATP]=10 μM, [ST3-Sox]=10 μM; room temperature
Outline: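 p38a-activated MK2 (0.4 nM) with 10 μM ATP (apparent Km) and 10 μM S/T3-Sox peptide in Tris pH 7.5 buffer with MgCl2, EGTA and DTT. Fluorescence (ex360/em485) read continuously for 120 min at room temperature. IC50 from initial linear slopes; apparent kinact/KI from kobs of exponential progress-curve fits.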

Chain of p38a activated, mitogen-activated protein kinase-activated protein kinase 2 (MAPKAP-K2 or MK2) enzyme (P49137 whole entry): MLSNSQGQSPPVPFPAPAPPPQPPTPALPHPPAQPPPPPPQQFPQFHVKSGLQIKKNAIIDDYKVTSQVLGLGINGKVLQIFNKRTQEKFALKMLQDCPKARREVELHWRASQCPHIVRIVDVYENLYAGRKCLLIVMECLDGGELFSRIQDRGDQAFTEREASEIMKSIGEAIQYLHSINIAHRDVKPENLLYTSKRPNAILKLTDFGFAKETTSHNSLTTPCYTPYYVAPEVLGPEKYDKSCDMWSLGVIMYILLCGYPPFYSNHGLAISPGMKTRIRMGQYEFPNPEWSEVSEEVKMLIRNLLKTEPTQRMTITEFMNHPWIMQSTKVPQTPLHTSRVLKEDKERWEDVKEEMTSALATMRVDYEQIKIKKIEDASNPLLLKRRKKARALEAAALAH

IC50	SMILES
43 nM	C=Cc1ncc(COC2CCOCC2)c(-c2ccc3c(ccc4sc5c(c43)NC[C@@H](C)NC5=O)n2)n1 [Example I-25, (R)-10-methyl-3-(5-(((tetrahydro-2H-pyran-4-yl)oxy)methyl)-2-vinylpyrimidin-4-yl)-9,10,11,12-tetrahydro-8H-[1,4]diazepino[5′,6′:4,5]thieno[3,2-f]quinolin-8-one]
75 nM	C[C@@H]1CNc2c(sc3ccc4nc(-c5ccnc(Cl)n5)ccc4c23)C(=O)N1 [Example I-8, (R)-3-(2-chloropyrimidin-4-yl)-10-methyl-9,10,11,12-tetrahydro-8H-[1,4]diazepino[5′,6′:4,5]thieno[3,2-f]quinolin-8-one]
526 nM	C#Cc1nc2c(c(-c3ccc4c(ccc5sc6c(c54)NC[C@@H](C)NC6=O)n3)n1)CN(C)CC2 [Example I-193, (R)-3-(2-ethynyl-6-methyl-5,6,7,8-tetrahydropyrido[4,3-d]pyrimidin-4-yl)-10-methyl-9,10,11,12-tetrahydro-8H-[1,4]diazepino[5′,6′:4,5]thieno[3,2-f]quinolin-8-one]
371 nM	C/C=C/c1ncc(COCC)c(-c2ccc3c(ccc4sc5c(c43)NC[C@@H](C)NC5=O)n2)n1 [Example I-48, (R,E)-3-(5-(ethoxymethyl)-2-(prop-1-en-1-yl)pyrimidin-4-yl)-10-methyl-9,10,11,12-tetrahydro-8H-[1,4]diazepino[5′,6′:4,5]thieno[3,2-f]quinolin-8-one]
8 nM	C#Cc1cc(-c2ccc3c(ccc4sc5c(c43)NC[C@@H](C)NC5=O)n2)cc(C2=CCN(C)CC2)n1 [Example I-102, (R)-3-(6-ethynyl-1′-methyl-1′,2′,3′,6′-tetrahydro-[2,4′-bipyridin]-4-yl)-10-methyl-9,10,11,12-tetrahydro-8H-[1,4]diazepino[5′,6′:4,5]thieno[3,2-f]quinolin-8-one]
10 nM	C=Cc1cc(-c2ccc3c(ccc4sc5c(c43)NC[C@@H](C)NC5=O)n2)cc(N2CCNCC2)n1 [Example I-175, (R)-10-methyl-3-(2-(piperazin-1-yl)-6-vinylpyridin-4-yl)-9,10,11,12-tetrahydro-8H-[1,4]diazepino[5′,6′:4,5]thieno[3,2-f]quinolin-8-one]
53 nM	C/C=C/c1cc(-c2ccc3c(ccc4sc5c(c43)NC[C@@H](C)NC5=O)n2)ccn1 [Example I-113, (R,E)-10-methyl-3-(2-(prop-1-en-1-yl)pyridin-4-yl)-9,10,11,12-tetrahydro-8H-[1,4]diazepino[5′,6′:4,5]thieno[3,2-f]quinolin-8-one]
1000 nM	C=Cc1nc(C)n(-c2ccc3c(ccc4sc5c(c43)NC[C@@H](C)NC5=O)n2)n1 [Example I-261, (R)-10-methyl-3-(5-methyl-3-vinyl-1H-1,2,4-triazol-1-yl)-9,10,11,12-tetrahydro-8H-[1,4]diazepino[5′,6′:4,5]thieno[3,2-f]quinolin-8-one]
10 nM	C=Cc1cc(-c2ccc3c(ccc4sc5c(c43)NC[C@@H](C)NC5=O)n2)cc(N(C)CCOC)n1 [Example I-237, (R)-3-(2-((2-methoxyethyl)(methyl)amino)-6-vinylpyridin-4-yl)-10-methyl-9,10,11,12-tetrahydro-8H-[1,4]diazepino[5′,6′:4,5]thieno[3,2-f]quinolin-8-one]
257 nM	C[C@@H]1CNc2c(sc3ccc4nc(-c5nc(Cl)nc6c5CN(C)CC6)ccc4c23)C(=O)N1 [Example I-192, (R)-3-(2-chloro-6-methyl-5,6,7,8-tetrahydropyrido[4,3-d]pyrimidin-4-yl)-10-methyl-9,10,11,12-tetrahydro-8H-[1,4]diazepino[5′,6′:4,5]thieno[3,2-f]quinolin-8-one]
912 nM	Cc1cnc(Cl)nc1-c1ccc2c(ccc3sc4c(c32)NC[C@@H](C)NC4=O)n1 [Example I-6, (R)-3-(2-chloro-5-methylpyrimidin-4-yl)-10-methyl-9,10,11,12-tetrahydro-8H-[1,4]diazepino[5′,6′:4,5]thieno[3,2-f]quinolin-8-one]

Source: patent US20240190890A1, “MK2 INHIBITORS AND USES THEREOF” (Bristol-Myers Squibb Company, priority 2022, published 2024)
